According to US9539280B2, “Cartilage production promoter and prophylactic or therapeutic agent for diseases associated with cartilage damage” (NATIONAL UNIVERSITY CORPORATION TOTTORI UNIVERSITY, priority 2009, dated 2017):
Entries after “also recorded” stand apart in the source; their conditions may differ.

Experiments:
Assay type in all cases: in vivo, rabbit
[1] = test system: damaged models (holes bored at proximal trochlear groove, distal trochlear groove and medial trochlear ridge of left knee joint); experiment: Macroscopic observation of the degree of healing in cartilage damaged models; settings: after 3 weeks
Protocol: As animal specimens, groups of female white rabbits (weight: about 2.0 kg) were used, the number of the rabbits in each of the groups being 3. The rabbits were habituated to the environment for one week from the time of delivery. Thereafter, 0.1 mg/kg of medetomidine was subcutaneously injected into each of the rabbits, and 25 mg/kg of Ketalar was intramuscularly injected thereto. About each of the rabbit specimens subjected to the injection anesthesia, the left knee joint was shaved, and then disinfected. Thereafter, approaching from the outside of the knee joint, the articular capsule was opened and the knee joint was exposed completely by shifting the patella to the inside. With reference to the experiment of Tamai et al. (Carbohydrate Polymers, 2002, vol. 48, pp. 369-378), three holes of 2 mm in diameter and 4 mm in depth were bored with a hand-drill at the proximal trochlear groove, distal trochlear groove, and the medial trochlear ridge. Thereafter, the sites were sufficiently rinsed, and then the articular capsule was sutured with 3-0PDS (polydioxanone). The subcutaneous tissue and the skin were simultaneously sutured with stainless steel wires. […] The degree of healing of each of the damages was scored on the basis of Table 1, and evaluated. […] About each of the damaged model groups, the degree of healing was evaluated on the basis of the criterion in Example 2. […]

proteoglycan = experiment: Histological observation, staining with safranin-O and image analysis
Protocol: (§1) As animal specimens, groups of female white rabbits (weight: about 2.0 kg) were used, the number of the rabbits in each of the groups being 3. The rabbits were habituated to the environment for one week from the time of delivery. Thereafter, 0.1 mg/kg of medetomidine was subcutaneously injected into each of the rabbits, and 25 mg/kg of Ketalar was intramuscularly injected thereto. About each of the rabbit specimens subjected to the injection anesthesia, the left knee joint was shaved, and then disinfected. Thereafter, approaching from the outside of the knee joint, the articular capsule was opened and the knee joint was exposed completely by shifting the patella to the inside. With reference to the experiment of Tamai et al. (Carbohydrate Polymers, 2002, vol. 48, pp. 369-378), three holes of 2 mm in diameter and 4 mm in depth were bored with a hand-drill at the proximal trochlear groove, distal trochlear groove, and the medial trochlear ridge. Thereafter, the sites were sufficiently rinsed, and then the articular capsule was sutured with 3-0PDS (polydioxanone). […]
(§2) The left femur of each of the damaged models in Example 1 was recovered, and then fixed with a 10% neutral buffered formalin aqueous solution (formaldehyde solution). […] The number of pixels in which a target color tone occupied was measured. […]

[2] = Observation of side effects during fucoidan administration; settings: 1 g fucoidan in 50 mL water every day by natural intake, 3 weeks, female white rabbits
Protocol: From the day of the operation, initially every day, water (50 mL) in which 1 g of a fucoidan was dissolved were dosed to the rabbits in the fucoidan-administered group by natural intake. Thereafter, water was given to the rabbits to drink freely. This was continued for 3 weeks. Only water was given to the rabbits in the control group.

glycosaminoglycan = experiment: Histological observation, staining with alcian blue and image analysis
Protocol: as §1, §2

[3] = Example 3, FIG. 6, vs control group, t-test

## fucoidan
[1]; Example 2, FIG. 1, vs control group
  degree of healing (macroscopic observation): many of the damages were satisfactorily cured; also recorded: good therapeutic results
[1]; Example 2, control filled with collagen fibers, fibroblasts
  tissue in the damaged sites: substituted with chondroblasts and cartilage tissues
proteoglycan; [3]
  image analysis of safranin-O-stained images (proteoglycan): significantly higher value
proteoglycan; Example 3, FIGS. 4 and 5, proximal and distal trochlear groove, microscope
  safranin-O staining of repaired regions (proteoglycan content): a large amount of proteoglycan was contained
[2]
  signs of side effects: no signs of side effects
glycosaminoglycan; [3]
  image analysis of alcian blue-stained images (glycosaminoglycan): significantly higher value
glycosaminoglycan; Example 3, FIGS. 2 and 3, proximal and distal trochlear groove, microscope
  alcian blue staining of repaired regions (glycosaminoglycan content): a large amount of glycosaminoglycan was contained
